# Measurements: ChEMBL document CHEMBL3390836, “Mannich- and LedererManasse-based analogues of the natural product S-(+)-curcuphenol as cancer proliferation and migration inhibitors” (Medchemcomm, 2012)
# Assays:
# Type in all cases: functional
# COLO 205 = assay: Cytotoxicity against human COLO205 cells after 48 hrs by SRB assay; details: COLO 205, 48 h; for CC50: read-out: LC50 (the source's name)
# [1] = Cytotoxicity against human OVCAR3 cells assessed as cell growth at 10^-7 M after 48 hrs by SRB assay relative to control; details: OVCAR-3, 48 h, read-out: Activity
# TK-10 = assay: Cytotoxicity against human TK10 cells after 48 hrs by SRB assay; details: TK-10, 48 h
# [2] = Cytotoxicity against human OVCAR5 cells assessed as cell growth at 10^-6 M after 48 hrs by SRB assay relative to control; details: OVCAR-5, 48 h, read-out: Activity
# [3] = Cytotoxicity against human EKVX cells after 48 hrs by SRB assay
# SK-MEL-28 [4] = assay: Cytotoxicity against human SK-MEL-28 cells after 48 hrs by SRB assay; details: SK-MEL-28, 48 h; for CC50: read-out: LC50 (the source's name)
# K562 = assay: Cytotoxicity against human K562 cells assessed as cell growth at 10^-6 M after 48 hrs by SRB assay relative to control; details: K562, 48 h, read-out: Activity
# SK-MEL-28 [5] = assay: Cytotoxicity against human SK-MEL-28 cells assessed as cell growth at 10^-6 M after 48 hrs by SRB assay relative to control; details: SK-MEL-28, 48 h, read-out: Activity
# IGROV-1 [6] = assay: Cytotoxicity against human IGROV1 cells after 48 hrs by SRB assay; details: IGROV-1, 48 h
# 786-0 [7] = assay: Cytotoxicity against human 786-0 cells assessed as cell growth at 10^-6 M after 48 hrs by SRB assay relative to control; details: 786-0, 48 h, read-out: Activity
# IGROV-1 [8] = assay: Cytotoxicity against human IGROV1 cells assessed as cell growth at 10^-8 M after 48 hrs by SRB assay relative to control; details: IGROV-1, 48 h, read-out: Activity
# ACHN = assay: Cytotoxicity against human ACHN cells after 48 hrs by SRB assay
# [9] = Cytotoxicity against human SKOV3 cells after 48 hrs by SRB assay; details: SK-OV-3, 48 h
# A498 = assay: Cytotoxicity against human A498 cells assessed as cell growth at 10^-7 M after 48 hrs by SRB assay relative to control; details: A498, 48 h, read-out: Activity
# MDA-MB-468 [10] = assay: Cytotoxicity against human MDA-MB-468 cells assessed as cell growth at 10^-7 M after 48 hrs by SRB assay relative to control; details: MDA-MB-468, 48 h, read-out: Activity
# Malme-3M = assay: Cytotoxicity against human MALME-3M cells assessed as cell growth at 10^-8 M after 48 hrs by SRB assay relative to control; details: read-out: Activity
# SF-539 [11] = assay: Cytotoxicity against human SF539 cells assessed as cell growth at 10^-7 M after 48 hrs by SRB assay relative to control; details: SF-539, 48 h, read-out: Activity
# [12] = Cytotoxicity against human NCI-ADR-RES cells after 48 hrs by SRB assay
# SNB-19 = assay: Cytotoxicity against human SNB19 cells assessed as cell growth at 10^-6 M after 48 hrs by SRB assay relative to control; details: SNB-19, 48 h, read-out: Activity
# SF-539 [13] = assay: Cytotoxicity against human SF539 cells assessed as cell growth at 10^-4 M after 48 hrs by SRB assay relative to control; details: SF-539, 48 h, read-out: Activity
# U-251 = assay: Cytotoxicity against human U251 cells after 48 hrs by SRB assay; details: U-251, 48 h
# [14] = Cytotoxicity against human EKVX cells assessed as cell growth at 10^-8 M after 48 hrs by SRB assay relative to control; details: read-out: Activity
# SK-MEL-5 [15] = assay: Cytotoxicity against human SK-MEL-5 cells after 48 hrs by SRB assay; details: SK-MEL-5, 48 h
# [16] = Cytotoxicity against human OVCAR4 cells after 48 hrs by SRB assay; details: OVCAR-4, 48 h
# SF-539 [17] = assay: Cytotoxicity against human SF539 cells assessed as cell growth at 10^-8 M after 48 hrs by SRB assay relative to control; details: SF-539, 48 h, read-out: Activity
# T47D = assay: Cytotoxicity against human T47D cells assessed as cell growth at 10^-6 M after 48 hrs by SRB assay relative to control; details: read-out: Activity
# SK-MEL-5 [18] = assay: Cytotoxicity against human SK-MEL-5 cells assessed as cell growth at 10^-8 M after 48 hrs by SRB assay relative to control; details: SK-MEL-5, 48 h, read-out: Activity
# [19] = Cytotoxicity against human OVCAR8 cells assessed as cell growth at 10^-4 M after 48 hrs by SRB assay relative to control; details: OVCAR-8, 48 h, read-out: Activity
# MDA-MB-468 [20] = assay: Cytotoxicity against human MDA-MB-468 cells after 48 hrs by SRB assay; details: MDA-MB-468, 48 h
# 786-0 [21] = assay: Cytotoxicity against human 786-0 cells assessed as cell growth at 10^-8 M after 48 hrs by SRB assay relative to control; details: 786-0, 48 h, read-out: Activity
# [22] = Cytotoxicity against human NCI-ADR-RES cells assessed as cell growth at 10^-4 M after 48 hrs by SRB assay relative to control; details: read-out: Activity
# [23] = Cytotoxicity against human HCT15 cells assessed as cell growth at 10^-8 M after 48 hrs by SRB assay relative to control; details: HCT-15, 48 h, read-out: Activity
# [24] = Cytotoxicity against human OVCAR3 cells after 48 hrs by SRB assay; details: OVCAR-3, 48 h
# [25] = Cytotoxicity against human SKOV3 cells assessed as cell growth at 10^-6 M after 48 hrs by SRB assay relative to control; details: SK-OV-3, 48 h, read-out: Activity
# [26] = Cytotoxicity against human UO31 cells assessed as cell growth at 10^-8 M after 48 hrs by SRB assay relative to control; details: UO-31, 48 h, read-out: Activity
# HCC 2998 = assay: Cytotoxicity against human HCC2998 cells after 48 hrs by SRB assay; details: HCC 2998, 48 h; for CC50: read-out: LC50 (the source's name)
smiles,measurement,setting,value
CC(C)=CCC[C@H](C)c1ccc(C)c2c1OCN(CC1CCNCC1)C2,GI50,COLO 205,1.86 µM
same,TGI,COLO 205,3.41 µM
same,CC50,COLO 205,6.25 µM
same,growth at 0.1 µM,[1],105%
same,GI50,TK-10,14.4 µM
same,LC50,TK-10,59.5 µM
same,TGI,TK-10,29.3 µM
same,growth at 1 µM,[2],85%
same,GI50,[3],20.7 µM
same,LC50,[3],> 100 µM
same,TGI,[3],66.9 µM
same,GI50,SK-MEL-28 [4],15.7 µM
same,TGI,SK-MEL-28 [4],28.3 µM
same,CC50,SK-MEL-28 [4],54.8 µM
same,growth at 1 µM,K562,93%
same,growth at 1 µM,SK-MEL-28 [5],101%
same,GI50,IGROV-1 [6],16.6 µM
same,LC50 (concentration killing 50% of cells),IGROV-1 [6],62.5 µM
same,TGI,IGROV-1 [6],32.2 µM
same,growth at 1 µM,786-0 [7],99%
same,growth at 0.01 µM,IGROV-1 [8],101%
same,GI50,ACHN,15.3 µM
same,LC50 (concentration killing 50% of cells),ACHN,58.9 µM
same,TGI,ACHN,30 µM
same,GI50,[9],16.7 µM
same,LC50 (concentration killing 50% of cells),[9],57.8 µM
same,TGI,[9],31.1 µM
same,growth at 0.1 µM,A498,82%
same,growth at 0.1 µM,MDA-MB-468 [10],94%
same,growth at 0.01 µM,Malme-3M,92%
same,growth at 0.1 µM,SF-539 [11],94%
same,GI50,[12],16.8 µM
same,"LC50 (lethal concentration, 50% cell kill)",[12],71.8 µM
same,TGI,[12],34.8 µM
same,growth at 1 µM,SNB-19,94%
same,growth at 100 µM,SF-539 [13],-93%
same,GI50,U-251,2.75 µM
same,LC50,U-251,31.6 µM
same,TGI,U-251,7.61 µM
same,growth at 0.01 µM,[14],104%
same,GI50,SK-MEL-5 [15],4.97 µM
same,LC50,SK-MEL-5 [15],49.8 µM
same,TGI,SK-MEL-5 [15],18.3 µM
same,GI50,[16],16 µM
same,LC50,[16],58.9 µM
same,TGI,[16],30.7 µM
same,growth at 0.01 µM,SF-539 [17],91%
same,growth at 1 µM,T47D,91%
same,growth at 0.01 µM,SK-MEL-5 [18],99%
same,growth at 100 µM,[19],-85%
same,GI50,MDA-MB-468 [20],5.01 µM
same,LC50,MDA-MB-468 [20],53.1 µM
same,TGI,MDA-MB-468 [20],18.4 µM
same,growth at 0.01 µM,786-0 [21],96%
same,growth at 100 µM,[22],-73%
same,growth at 0.01 µM,[23],93%
same,GI50,[24],15.6 µM
same,LC50,[24],62.1 µM
same,TGI,[24],31.1 µM
same,growth at 1 µM,[25],100%
same,growth at 0.01 µM,[26],95%
same,GI50,HCC 2998,3.74 µM
same,TGI,HCC 2998,12.3 µM
same,CC50,HCC 2998,37.5 µM
CC(C)=CCC[C@H](C)c1ccc(C)c(CNCC2CCNCC2)c1O,GI50,COLO 205,3.98 µM
same,TGI,COLO 205,7.57 µM
same,CC50,COLO 205,14.4 µM
same,growth at 0.1 µM,[1],104%
same,GI50,TK-10,0.0551 µM
same,LC50,TK-10,> 25 µM
same,TGI,TK-10,17.8 µM
same,growth at 1 µM,[2],90%
same,GI50,[3],8.56 µM
same,LC50,[3],> 25 µM
same,TGI,[3],> 25 µM
same,GI50,SK-MEL-28 [4],4.2 µM
same,TGI,SK-MEL-28 [4],7.89 µM
same,CC50,SK-MEL-28 [4],14.8 µM
same,growth at 1 µM,K562,91%
same,growth at 1 µM,SK-MEL-28 [5],98%
same,GI50,IGROV-1 [6],9.4 µM
same,LC50 (concentration killing 50% of cells),IGROV-1 [6],> 25 µM
same,TGI,IGROV-1 [6],> 25 µM
same,growth at 1 µM,786-0 [7],85%
same,growth at 0.01 µM,IGROV-1 [8],102%
same,GI50,ACHN,4.68 µM
same,LC50 (concentration killing 50% of cells),ACHN,> 25 µM
same,TGI,ACHN,12.7 µM
same,GI50,[9],6.82 µM
same,LC50 (concentration killing 50% of cells),[9],> 25 µM
same,TGI,[9],> 25 µM
same,growth at 0.1 µM,A498,74%
same,growth at 0.1 µM,MDA-MB-468 [10],77%
same,growth at 0.01 µM,Malme-3M,97%
same,growth at 0.1 µM,SF-539 [11],91%
same,GI50,[12],19.8 µM
same,"LC50 (lethal concentration, 50% cell kill)",[12],> 25 µM
same,TGI,[12],> 25 µM
same,growth at 1 µM,SNB-19,93%
same,growth at 100 µM,SF-539 [13],-77%
same,GI50,U-251,3.72 µM
same,LC50,U-251,15.9 µM
same,TGI,U-251,7.69 µM
same,growth at 0.01 µM,[14],99%
same,GI50,SK-MEL-5 [15],3.41 µM
same,LC50,SK-MEL-5 [15],12.9 µM
same,TGI,SK-MEL-5 [15],6.63 µM
same,GI50,[16],18.2 µM
same,LC50,[16],> 25 µM
same,TGI,[16],> 25 µM
same,growth at 0.01 µM,SF-539 [17],96%
same,growth at 1 µM,T47D,84%
same,growth at 0.01 µM,SK-MEL-5 [18],93%
same,growth at 100 µM,[19],-60%
same,GI50,MDA-MB-468 [20],3.33 µM
same,LC50,MDA-MB-468 [20],14.1 µM
same,TGI,MDA-MB-468 [20],6.86 µM
same,growth at 0.01 µM,786-0 [21],93%
same,growth at 100 µM,[22],46%
same,growth at 0.01 µM,[23],102%
same,GI50,[24],8.44 µM
same,LC50,[24],> 25 µM
same,TGI,[24],> 25 µM
same,growth at 1 µM,[25],104%
same,growth at 0.01 µM,[26],88%
same,GI50,HCC 2998,4.13 µM
same,TGI,HCC 2998,7.73 µM
same,CC50,HCC 2998,14.4 µM
